Key:
[1] = Mouse mini-PK, plasma levels by LC-MS/MS; type: in vivo, C57Bl-6 mice
Method: In vitro studies compared murine and human hepatic microsomes (150 donor mixed male/female pool). […] C57B16 mice were dosed at 10 mg/kg and drug levels were quantitated in plasma at 1, 6, and 24 h by LC-MS/MS (Table 1B).

[2] = system: Tat; assay: Biotinylated compound streptavidin-bead pull-down of Tat; type: binding, HIV-1; settings: flag-tagged Tat expressed in cells or recombinant Tat
Method: HEK293T cells were transfected with flag-tagged Tat 101 a.a. (Tat-F-101-wt), a shorter Tat version with 86 a.a. (Tat-F-86-wt), Tat 86 a.a. mutated in the basic domain (Tat-F-BRM), flag-tagged CDK11 (CDK11-F), flag-tagged 9G8 (9G8-F) and empty vector control.
Recombinant Tat protein was incubated with Bio-dCA streptavidin-coated beads in the presence or absence of an excess of non-biotinylated dCA (represented as molar equivalent [eq.] of Bio-dCA). Raltegravir and recombinant GST-9G8 were used as a negative control competitor or as negative protein-binding control, respectively.
DYNABEADS® MYONE™ Streptavidin T1 (12.5 μl slurry) (Invitrogen) were pre-saturated with 1.88 μl of 1 mM in DMSO of Biotin alone or Bio-dCA and incubated for 1 h at room temperature with orbital rocking, plus an additional 30 min with Biotin (0.63 μl of 1 mM in DMSO). Protein extracts (250 μg per sample) were incubated with the pre-saturated beads in lysis buffer supplemented with 0.1% BSA for 1 h at 4° C. with orbital rocking. After incubation, the beads were washed three times with lysis buffer.
For the pull-down of recombinant Tat (#2222 of NIH) and GST-9G8, streptavidin-agarose beads (40 μl slurry) were pre-saturated with 1.5 μl of 1 mM in DMSO, Biotin alone, or Bio-dCA and incubated for 1 h at room temperature. […] After incubation, the beads were washed three times with PBS and proteins were eluted as before.

[3] = system: Tat transactivation of the HIV-1 LTR; assay: Tat transactivation assay, HeLa-CD4-LTR-Luc cells; type: cell-based
Method: Chloroquine 100 μM was added to increase Tat uptake was added to all points except untreated wells. Luciferase activity was measured 24 h later using the Luciferase Assay System (Promega). Luciferase activity per protein concentration of each sample is shown as relative light units (RLU). HI: Heat Inactivated.
FIG. 2B: HeLa-LTR-Luc cells were transfected with 2 μg of a construct expressing Tat-flag driven by the thymidine kinase (TK) promoter. […] Forty hours later RLU determined as in FIG. 2A.
Luciferase activity measured and results adjusted per protein concentration of each sample, relative light units (RLU).
PL11 cells were plated at 1×10^5 cells per well in a 6 well plate. The following day recombinant Tat protein (AIDS Research and Reference Reagent Program, Cat No. 11882) at 5 μg/ml and/or Cortistatin A at increasing concentrations were added to the cells, in culture media without serum and in the presence of 100 μM of chloroquine (increases Tat uptake). Five hours later, serum was added at 5% to the culture media. Forty hours later cells were lysed with 1× Lysis Buffer and luciferase activity was measured as before. Protein concentration was determined by Bradford assay. Results corresponding to the adjustment of the luciferase activity per protein concentration of each sample are shown as RLU. […]

[4] = biological target: T1, DNA-dependent protein kinase (DNA-PK) catalytic subunit (Homo sapiens, UniProt P78527); assay: Bio-CA pull-down / mass spectrometry, DNA-PK; type: binding
T1 construct: endogenous in cells; host or cells: P42 (HeLa-CD4-LTR-LacZ) cells; HEK293T cells
Method: FIG. 14: Bio-CA associated proteins. […] After SDS-PAGE analysis and Coomassie staining, gel slices were trypsin-digested and sent to mass spectrometry analysis.
To identify cellular proteins associated with CA, a biotinylated form of the compound (Bio-CA) was used. […] The Bio-CA was used to cover streptavidin-coated magnetic beads to pull down interacting proteins from either uninfected or chronically infected lysates of cells grown in the presence or absence of CA for 48 hours (FIG. 14D). The identity of the proteins pulled down under the different conditions was determined by HPLC MS/MS analysis. The proteins were identified with a greater than 95% confidence using a proprietary Scripps proteomics software package for protein identification, statistical analysis, and mass/peptide sequence correlation. The HIV proteome was added to the proteomics software search database before analysis. Many proteins were identified in uninfected untreated and in chronically untreated samples (approximately 300), however only 53 were displaced by more than 50% by the presence of CA. Of these 53 proteins, it appears that at least 2 may have a role in HIV-1 replication: DNA-dependent protein kinase catalytic subunit (DNA-PK) and helicase like transcription factor (HLTF).

[5] = Hepatic microsomal stability, mouse; type: in vitro ADME; settings: 1 μM, 0.2-1 mg/ml microsomes, NADPH 1 mM
[6] = system: CXCR4, TK, PGK or CD4 promoters; assay: Transcription from cellular/control promoters; type: cell-based
Method: FIG. 8C: Luciferase assays of TE671 cells transfected with the indicated promoter or promoter portion driving Luciferase expression. Main consensus bonding sites for transcription factors are indicated. 24 h post transfection cells were split and treated or not with CA. Forty hours later cells were lysed and luciferase activity measured as in FIG. 8A.
FIG. 8D: CEM SS and HeLa-CD4 cells stained for CD4, CXCR4 or isotype control expression followed by flow cytometry analysis.
Similar results were obtained when a Tat-encoding plasmid was transfected into HeLa-CD4 expressing LTR-Luc (FIG. 2B). […] Reporter transcription from heat-inactivated recombinant Tat protein (FIG. 2A), which was used as negative control, reflects Tat-independent activation of the HIV promoter, and accounts for approximately 20% of maximal activation.

[7] = system: HIV-2 (ROD/A); assay: Acute HIV-2 replication in HeLa-CD4 cells, p24 ELISA; type: cell-based; settings: p24, 5 days post-infection
Description: Antigen p24 in the supernatant measured using a sandwiched ELISA kit, 5 days post-infection.

T1 sequence (P78527 whole entry): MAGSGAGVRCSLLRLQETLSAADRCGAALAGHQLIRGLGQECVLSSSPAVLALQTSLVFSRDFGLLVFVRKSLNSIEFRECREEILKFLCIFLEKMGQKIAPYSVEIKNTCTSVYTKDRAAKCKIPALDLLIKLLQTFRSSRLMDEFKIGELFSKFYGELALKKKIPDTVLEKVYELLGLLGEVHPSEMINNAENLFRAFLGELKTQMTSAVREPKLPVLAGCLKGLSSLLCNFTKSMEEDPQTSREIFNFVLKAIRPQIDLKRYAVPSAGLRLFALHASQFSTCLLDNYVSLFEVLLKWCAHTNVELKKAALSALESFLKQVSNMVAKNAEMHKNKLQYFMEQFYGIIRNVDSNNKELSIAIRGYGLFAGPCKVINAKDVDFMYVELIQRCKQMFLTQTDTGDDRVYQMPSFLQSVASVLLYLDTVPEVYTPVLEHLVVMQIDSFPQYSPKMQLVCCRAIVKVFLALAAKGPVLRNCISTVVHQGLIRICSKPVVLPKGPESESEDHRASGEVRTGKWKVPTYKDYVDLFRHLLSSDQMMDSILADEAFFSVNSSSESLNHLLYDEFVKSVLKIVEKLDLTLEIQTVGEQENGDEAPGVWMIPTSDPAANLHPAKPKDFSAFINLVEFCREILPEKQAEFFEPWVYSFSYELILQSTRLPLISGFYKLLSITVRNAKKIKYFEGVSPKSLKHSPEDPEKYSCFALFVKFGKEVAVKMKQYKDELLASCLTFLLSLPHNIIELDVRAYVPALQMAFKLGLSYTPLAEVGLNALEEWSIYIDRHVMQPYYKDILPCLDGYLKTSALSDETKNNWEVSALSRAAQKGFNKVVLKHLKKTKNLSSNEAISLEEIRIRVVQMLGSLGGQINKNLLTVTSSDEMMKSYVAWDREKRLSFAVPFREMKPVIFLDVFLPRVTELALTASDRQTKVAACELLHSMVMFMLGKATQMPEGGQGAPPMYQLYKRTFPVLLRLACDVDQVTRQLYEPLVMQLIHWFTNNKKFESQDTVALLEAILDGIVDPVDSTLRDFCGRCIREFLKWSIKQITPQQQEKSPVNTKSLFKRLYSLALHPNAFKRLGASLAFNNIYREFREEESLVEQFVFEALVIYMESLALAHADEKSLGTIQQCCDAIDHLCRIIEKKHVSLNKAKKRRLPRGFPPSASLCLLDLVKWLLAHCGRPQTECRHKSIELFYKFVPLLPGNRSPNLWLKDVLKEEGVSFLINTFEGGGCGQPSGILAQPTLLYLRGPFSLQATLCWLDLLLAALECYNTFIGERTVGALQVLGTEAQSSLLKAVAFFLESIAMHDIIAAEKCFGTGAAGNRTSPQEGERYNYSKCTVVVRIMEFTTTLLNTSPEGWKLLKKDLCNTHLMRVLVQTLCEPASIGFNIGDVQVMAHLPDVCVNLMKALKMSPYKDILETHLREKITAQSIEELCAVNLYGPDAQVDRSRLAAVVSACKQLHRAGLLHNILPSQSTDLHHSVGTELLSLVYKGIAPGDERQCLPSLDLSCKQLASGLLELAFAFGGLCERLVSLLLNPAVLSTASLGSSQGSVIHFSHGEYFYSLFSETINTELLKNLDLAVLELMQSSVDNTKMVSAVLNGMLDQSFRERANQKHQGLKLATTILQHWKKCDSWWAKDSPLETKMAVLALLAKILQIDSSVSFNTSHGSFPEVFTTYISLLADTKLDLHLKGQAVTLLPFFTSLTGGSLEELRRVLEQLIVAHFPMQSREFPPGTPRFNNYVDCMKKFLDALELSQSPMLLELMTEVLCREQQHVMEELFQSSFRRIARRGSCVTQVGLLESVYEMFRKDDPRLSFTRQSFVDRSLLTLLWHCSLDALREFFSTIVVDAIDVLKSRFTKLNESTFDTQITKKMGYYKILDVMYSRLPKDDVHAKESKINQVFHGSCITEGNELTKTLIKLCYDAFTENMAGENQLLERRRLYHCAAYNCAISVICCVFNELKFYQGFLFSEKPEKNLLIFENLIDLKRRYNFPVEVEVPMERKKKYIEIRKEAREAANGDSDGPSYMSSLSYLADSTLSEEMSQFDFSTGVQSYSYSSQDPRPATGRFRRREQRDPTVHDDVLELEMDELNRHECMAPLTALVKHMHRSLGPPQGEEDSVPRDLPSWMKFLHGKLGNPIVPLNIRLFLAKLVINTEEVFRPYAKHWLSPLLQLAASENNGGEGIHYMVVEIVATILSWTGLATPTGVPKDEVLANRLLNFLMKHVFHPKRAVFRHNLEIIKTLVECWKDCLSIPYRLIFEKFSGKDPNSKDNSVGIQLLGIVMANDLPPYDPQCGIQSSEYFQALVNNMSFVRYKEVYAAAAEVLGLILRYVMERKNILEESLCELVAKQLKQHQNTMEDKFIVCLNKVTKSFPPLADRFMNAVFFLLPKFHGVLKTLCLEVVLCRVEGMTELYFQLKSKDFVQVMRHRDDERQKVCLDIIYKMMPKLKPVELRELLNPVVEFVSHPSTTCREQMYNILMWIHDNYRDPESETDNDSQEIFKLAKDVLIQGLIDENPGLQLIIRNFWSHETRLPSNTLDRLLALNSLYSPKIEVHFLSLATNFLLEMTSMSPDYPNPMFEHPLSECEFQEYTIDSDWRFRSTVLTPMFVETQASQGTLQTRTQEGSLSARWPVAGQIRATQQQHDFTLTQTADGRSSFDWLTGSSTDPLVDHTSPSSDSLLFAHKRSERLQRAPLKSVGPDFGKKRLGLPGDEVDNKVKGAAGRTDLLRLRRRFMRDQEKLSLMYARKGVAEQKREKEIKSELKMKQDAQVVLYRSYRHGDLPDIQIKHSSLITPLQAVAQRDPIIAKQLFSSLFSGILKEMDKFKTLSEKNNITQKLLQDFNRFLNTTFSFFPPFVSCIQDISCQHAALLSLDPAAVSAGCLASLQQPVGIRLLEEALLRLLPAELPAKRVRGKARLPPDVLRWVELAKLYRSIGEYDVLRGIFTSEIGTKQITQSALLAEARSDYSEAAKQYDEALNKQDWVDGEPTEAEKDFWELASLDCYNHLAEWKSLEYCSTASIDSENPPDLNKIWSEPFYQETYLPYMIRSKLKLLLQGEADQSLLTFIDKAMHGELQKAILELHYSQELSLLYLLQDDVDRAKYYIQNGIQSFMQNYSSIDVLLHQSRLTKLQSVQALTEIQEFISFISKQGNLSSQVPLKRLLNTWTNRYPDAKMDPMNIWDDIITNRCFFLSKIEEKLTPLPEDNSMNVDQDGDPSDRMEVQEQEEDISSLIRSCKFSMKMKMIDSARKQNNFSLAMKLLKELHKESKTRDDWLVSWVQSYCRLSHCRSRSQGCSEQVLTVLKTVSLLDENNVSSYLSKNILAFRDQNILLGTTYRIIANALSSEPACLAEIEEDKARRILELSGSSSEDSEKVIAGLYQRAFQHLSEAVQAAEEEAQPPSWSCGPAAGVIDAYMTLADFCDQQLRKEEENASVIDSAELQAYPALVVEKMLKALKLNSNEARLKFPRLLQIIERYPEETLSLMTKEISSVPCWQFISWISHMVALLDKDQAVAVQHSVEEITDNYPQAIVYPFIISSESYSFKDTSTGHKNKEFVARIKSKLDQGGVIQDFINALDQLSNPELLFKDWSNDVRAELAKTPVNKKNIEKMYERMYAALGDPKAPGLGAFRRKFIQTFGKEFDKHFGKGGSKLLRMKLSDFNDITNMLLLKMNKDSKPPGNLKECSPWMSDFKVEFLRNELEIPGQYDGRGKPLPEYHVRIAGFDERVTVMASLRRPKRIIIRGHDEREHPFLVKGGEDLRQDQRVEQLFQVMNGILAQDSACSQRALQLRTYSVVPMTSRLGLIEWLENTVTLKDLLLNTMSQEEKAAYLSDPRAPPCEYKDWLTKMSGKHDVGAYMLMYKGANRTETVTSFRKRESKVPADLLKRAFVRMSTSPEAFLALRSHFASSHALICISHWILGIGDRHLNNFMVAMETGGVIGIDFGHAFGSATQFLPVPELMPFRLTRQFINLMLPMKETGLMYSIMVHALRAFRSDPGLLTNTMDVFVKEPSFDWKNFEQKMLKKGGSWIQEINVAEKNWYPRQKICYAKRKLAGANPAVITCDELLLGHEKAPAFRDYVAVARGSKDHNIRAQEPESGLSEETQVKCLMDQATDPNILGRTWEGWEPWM

CN(C)[C@H]1C[C@@]23CC[C@@]4(O2)C(=CC[C@]2(C)C(c5ccc6ccncc6c5)=CC[C@H]24)C=C3[C@@H](O)[C@@H]1O [dCA, didehydro-Cortistatin A]
drug levels relative to the EC50 of cell-based assays ([1]; 1 h after dosing, 10 mg/kg): greater than 1000 fold | plasma drug levels for all mice ([1]; 24 h post dose, 10 mg/kg): above 30 nM | health of mice ([1]; after 24 h treatment, 10 mg/kg): still healthy | bioavailability in mice ([1]; mouse, in vivo): good bioavailability | interaction with Tat (pull-down) [2]: interacted directly | basal transcription from the LTR promoter ([3]; absence of Tat, or PMA activation): did not alter basal transcription | Tat-mediated transcriptional activation of LTR-Luc ([3]; recombinant Tat protein added): Transcriptional repression | interaction with DNA-PK [4]: interaction | T1/2 hepatic microsomes, Mouse [5]: 3.02 h | transcription from CXCR4, TK, PGK or CD4 promoters [6]: not affected | EC50 [7]: ~5 nM

From patent US9682994B2, “Inhibitors of retroviral replication” (The Scripps Research Institute, priority 2011, dated 2017)
